Laboratory results from US6087376A (priority 1998, dated 2000).

Key:
[1] = test system: nicotinic receptors in mouse brain; conditions: in vivo; cited from earlier work
[2] = test system: monoamine oxidase; conditions: cited from earlier work
[3] = biological target: T1, plasma membrane DA transporter (rat striatal synaptosomes) (Rattus norvegicus, UniProt P23977); assay: [3H]DA uptake assay, striatal synaptosomal preparation; assay type: biochemical; conditions: read-out: IC50, inhibition of [3H]DA uptake into synaptosomes
T1 construct: from tissue; host or cells: rat striatum, synaptosomes
T1 sequence (P23977 whole entry): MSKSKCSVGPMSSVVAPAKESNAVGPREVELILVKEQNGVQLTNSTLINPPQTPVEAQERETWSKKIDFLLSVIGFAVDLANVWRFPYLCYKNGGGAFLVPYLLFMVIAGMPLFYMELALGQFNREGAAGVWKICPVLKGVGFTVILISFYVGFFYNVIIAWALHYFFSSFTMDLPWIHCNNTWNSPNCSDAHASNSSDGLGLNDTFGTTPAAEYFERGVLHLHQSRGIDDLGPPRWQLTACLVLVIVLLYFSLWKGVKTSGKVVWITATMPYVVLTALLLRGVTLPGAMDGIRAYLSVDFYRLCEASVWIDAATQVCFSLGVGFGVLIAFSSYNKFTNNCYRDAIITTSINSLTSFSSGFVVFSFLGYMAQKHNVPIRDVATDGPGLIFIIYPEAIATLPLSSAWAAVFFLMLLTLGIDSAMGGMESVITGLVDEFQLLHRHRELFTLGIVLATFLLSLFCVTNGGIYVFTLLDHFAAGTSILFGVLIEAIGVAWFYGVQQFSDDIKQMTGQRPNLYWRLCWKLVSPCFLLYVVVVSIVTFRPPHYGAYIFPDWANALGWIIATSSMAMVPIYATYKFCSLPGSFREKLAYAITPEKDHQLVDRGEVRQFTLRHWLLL
Description: The homogenate was centrifuged at 2,000×g for 10 min at 4° C. […] The final protein concentration was 400 μg/mL. The assay was performed in duplicate in a total volume of 500 μL. […] The incubation continued for 10 min at 34° C. The reaction was terminated by the addition of 3 mL cold assay buffer (without 1 mM catechol). Samples were rapidly filtered through a Whatman GF/B filter using a Brandel cell harvester (model MP-43 RS, Biochemical Research and Development Laboratories, Inc., Gaithersburg, Md.) and the filter was subsequently washed 3 times with 4 mL of cold assay buffer containing 1 mM catechol. Filters were previously soaked for 2 hrs in the cold assay buffer containing 1 mM catechol. […] Filters were placed into scintillation vials, 10 mL of scintillation cocktail was added and radioactivity was determined by scintillation spectrometry.
Inhibition of synaptosomal and vesicular [^3 H]DA uptake were analyzed by repeated-measures, one-way ANOVA, and by an iterative nonlinear least-squares curve-fitting program (GraphPAD-PRIZM; GraphPAD, San Diego, Calif.) to obtain IC50 values. Dunnett's post hoc test was used to compare treatment means to a single control mean. Also, Duncan's New Multiple Range Test or Fisher's LSD post hoc analysis were used to compare pairs of treatment means. […]

[4] = test system: anxiolytic activity; conditions: in vivo; cited from earlier work
[5] = test system: anesthetized rats; conditions: urethane and pentobarbital anesthetized rats; cited from earlier work
[6] = test system: rat striatum; assay: Striatal DA and DOPAC content after in vivo administration of lobeline
From the text: Male Sprague-Dawley rats (200-250 g) were obtained from Harlan Laboratories (Indianapolis, Ind.) and were housed two per cage with free access to food and water in the Division of Lab Animal Resources at the College of Pharmacy at the University of Kentucky. Experimental protocols involving the animals were in strict accordance with the NIH Guide for the Care and Use of Laboratory Animals and were approved by the Institutional Animal Care and Use Committee at the University of Kentucky.
Rats were killed 24 hrs after the last injection and striata were obtained immediately for determination of endogenous DA and DOPAC content. […] Striata were obtained for endogenous DA and DOPAC content determination 21 days after osmotic minipump implantation. Lobeline dose was expressed in terms of mg of lobeline hemisulfate salt per kg body weight.
(§1) An aliquot (500 μL) of 0.1 M perchloric acid (pH 1.0) containing 0.14-0.29 μM 3,4-dihydroxybenzylamine hydrobromide (DHBA, internal standard) was added to 100 mg of striatum and the mixture was sonicated with an Ultrasonic Processor (40-Watt Model, Sonics & Materials, Danbury, Conn.). The homogenate was centrifuged at 30,000×g for 10 min at 4° C., and the supernatant was filtered (0.2 μm nylon membrane). An aliquot (50 μL) of the filtrate (1:1, 1:50, 1:100, 1:200 or 1:500 dilution with 0.1 M perchloric acid) was injected onto the high pressure liquid chromatograph with electrochemical detection (HPLC-EC) system. The HPLC-EC system consisted of syringe loading injector (Model 7725, Rheodyne L. P., Cotati, Calif.), Beckman Model 116 HPLC pump (Beckman, Fullerton, Calif.), ESA ODS ultrasphere C18 reverse-phase column ([…]×75 mm, 3 micron particle size, ESA, Bedford, Mass.), and an ESA 5100A coulometric electrochemical detector with a model 5011 detector cell (E1=+0.05 V, E2=+0.32 V). The eluent was 6% acetonitrile, 10 μM EDTA, 1.4 mM 1-octane-sulfonic acid and 76 mM sodium phosphate monobasic (pH 3.1). All separations were performed at room temperature at a flow rate of 1 ml/min. Complete separation of DA and DOPAC and reequilibration of the system required 9 min. The retention time of DA, DOPAC and DHBA standards was used to identify the relevant peak. Peak heights were used to calculate the detected amount of compound based on standard curves. The detection limit of DA and DOPAC was 0.2 and 0.05 pg/50 μL injected, respectively. Recovery of internal standard was routinely 75%.

[7] = test system: rat striatal slices; assay: Endogenous DA and DOPAC content in striatal slices following superfusion with lobeline; assay type: cell-based
Description: Data are presented as mean±S.E. ng/mg protein. *P<0.05, different from control, P<0.05, **P<0.001, different from control; Dunnett's post hoc test. n=8 rats.
At the end of the superfusion experiment, slices were processed in the endogenous DA and DOPAC content assay described below.
as §1

[8] = test system: locomotor activity in rats; conditions: rat, in vivo; cited from earlier work
[9] = test system: mouse striatal synaptosomes; conditions: cited from earlier work
[10] = biological target: central nicotinic receptors; conditions: read-out: Ki, displacement of [3H]nicotine binding; cited from earlier work
[11] = test system: tachycardia and hypertension; conditions: in vivo; cited from earlier work
[12] = chronic, 30 mg/kg/day s.c. osmotic minipump, 21 days
[13] = intermittent, 3 mg/kg s.c. once daily for 10 days
[14] = intermittent, 10 mg/kg s.c. once daily for 10 days

CN1[C@@H](CC(=O)c2ccccc2)CCC[C@H]1C[C@H](O)c1ccccc1 [Lobeline, 2-[G-(β-hydroxyphenethyl)-1-methyl-2-piperidyl]-acetophenone]
number of nicotinic receptors after chronic treatment [1]: did not increase the number of nicotinic receptors
inhibition of monoamine oxidase [2]: does not inhibit monoamine oxidase
IC50 [3]: 80 ± 12 µM
anxiolytic activity [4]: anxiolytic activity
cardiovascular effects [5]: bradycardia and hypotension
striatal DA content ([6]; acute, 1 mg/kg s.c., 1 hr): 756 ± 111 ng/mg protein
striatal DOPAC content ([6]; acute, 1 mg/kg s.c., 1 hr): 81 ± 12 ng/mg protein
striatal DA content ([6]; acute, 3 mg/kg s.c., 1 hr): 761 ± 103 ng/mg protein
striatal DOPAC content ([6]; acute, 3 mg/kg s.c., 1 hr): 89 ± 15 ng/mg protein
striatal DA content ([6]; acute, 10 mg/kg s.c., 1 hr): 841 ± 76 ng/mg protein
striatal DOPAC content ([6]; acute, 10 mg/kg s.c., 1 hr): 82 ± 8 ng/mg protein
striatal DA content ([6]; acute, 30 mg/kg s.c., 1 hr): 665 ± 126 ng/mg protein
striatal DOPAC content ([6]; acute, 30 mg/kg s.c., 1 hr): 72 ± 10 ng/mg protein
effect on striatal DA or DOPAC content in vivo ([6]; any dose or treatment regimen): did not significantly alter
striatal DA content [6, 12]: 856 ± 144 ng/mg protein
striatal DOPAC content [6, 12]: 62 ± 10 ng/mg protein
striatal DA content [6, 13]: 778 ± 27 ng/mg protein
striatal DOPAC content [6, 13]: 57 ± 12 ng/mg protein
striatal DA content [6, 14]: 800 ± 41 ng/mg protein
striatal DOPAC content [6, 14]: 57 ± 3 ng/mg protein
DOPAC overflow from rat striatal slices [7]: DOPAC overflow from rat striatal slices is observed
effect on DA or DOPAC content in superfused slices ([7]; lobeline 0.1-10 μM, 60 min): did not alter DA or DOPAC content
effect on endogenous DA content in superfused slices ([7]; lobeline 30-100 μM, 60 min): significantly depleted endogenous DA content
effect on endogenous DOPAC content in superfused slices ([7]; lobeline 30-100 μM, 60 min): increased DOPAC content
locomotor activity [8]: does not increase locomotor activity
DA release from superfused striatal synaptosomes [9]: increase DA release
Ki [10]: 0.005 to 0.03 µM
cardiovascular effects [11]: tachycardia and hypertension
